# Tested on: HCT116 human colic carcinoma line
# Experiment: In vivo antitumour test, human carcinoma grafted subcutaneously into mice
# Conditions: 400 mg/kg/adm., orally
# Method: The influence of the compounds according to the invention, administered to mice, on the growth of carcinomas of human origin grafted subcutaneously into these mice was studied.
# On day 0 of the experiment, the mice received a tumour fragment (30-60 mg) bilaterally under the skin using a trocar. The bilateral implantation of the tumours ensured a more uniform tumour weight per mouse and thus made it possible to reduce the number of animals per group. The mice were then divided into the different treated and untreated groups.
# The product was suspended in an aqueous solution at concentrations that ranged from […], corresponding to doses of 0.1 to 10,000 mg/kg.
# The treatments or their possible excipient were administered every day orally, at a maximum volume of 0.2 ml, the duration of administration depending on the doubling time of the tumour.
# The tumours were measured 2 to 3 times per week, using a calliper rule, according to two measurements in mm, which were subsequently converted into tumour weight according to the following formula:
# tumour weight (mg)=Length (mm)×width^2 (mm^2)/2
# An active product was a product which made it possible to limit the growth of the tumour after it had been administered.
row,Compound,Tumour stabilization
1,"C=C(C(=O)N1C[C@H]2[C@@]3(c4ccc(C)cc4)CC[C@H](c4ccccc43)[C@@]2(C(=O)O)C1)c1ccccc1OC (single isomer, unassigned) [Example 3, dextrorotatory enantiomer of (3aRS,4SR,9RS,9aRS)-4,9-ethano-2-[2-(2-methoxyphenyl)propenoyl]-9-(4-methylphenyl)-2,3,3a,4,9,9a-hexahydro-1H-benzo[f]isoindole-3a-carboxylic acid]",Tumour stabilization

# Target: farnesyl transferase (Homo sapiens, UniProt P49354+P49356)
# Experiment: Farnesyl transferase inhibition, [3H]-farnesylation of biotinylated K-ras C-terminal peptide (SPA assay)
# Format: biochemical
# Conditions: In vitro inhibitory activity (K-Ras) IC50, K-Ras substrate; 60 min at 37° C.; mean of two IC50 values
row,Compound,IC50 [µM]
1,"COc1ccccc1CC(=O)N1C[C@H]2[C@@]3(c4ccc(F)cc4)CC[C@H](c4ccccc43)[C@@]2(C(=O)O)C1 (relative stereo) [Example 8, (3aRS,4SR,9SR,9aRS)-4,9-ethano-9-(4-fluorophenyl)-2-[(2-methoxyphenyl)acetyl]-2,3,3a,4,9,9a-hexahydro-1H-benzo[f]isoindole-3a-carboxylic Acid]",0.1

# Same assay, conditions: K-Ras substrate; 60 min at 37° C.; mean of two IC50 values; read-out: In vitro inhibitory activity (K-Ras) IC50
row,Compound,IC50 [µM]
1,"COc1cccc([C@]23CC[C@H](c4ccccc42)[C@@]2(C(=O)O)CN(C(=O)Cc4ccccc4OC)C[C@@H]32)c1 (relative stereo) [Example 10, (3aRS,4SR,9SR,9aRS)-4,9-ethano-9-(3-methoxyphenyl)-2-[(2-methoxyphenyl)acetyl]-2,3,3a,4,9,9a-hexahydro-1H-benzo[f]isoindole-3a-carboxylic Acid]",0.16
2,"C=C(C(=O)N1C[C@@H]2[C@]3(c4ccc(C(F)(F)F)cc4)CC[C@@H](c4ccccc43)[C@]2(C(=O)NCc2cccnc2)C1)c1ccccc1OC (relative stereo) [Example 42, (3aRS,4SR,9SR,9aRS)-4,9-ethano-2-[2-(2-methoxyphenyl)propenoyl]-9-[4-(trifluoromethyl)phenyl]-2,3,3a,4,9,9a-hexahydro-1H-benzo[f]isoindole-3a-N-(3-pyridylmethyl)carboxamide]",0.083
3,"C=C(C(=O)N1C[C@H]2[C@@]3(c4ccc(OC)cc4)CC[C@H](c4ccccc43)[C@@]2(C(=O)NCc2cccnc2)C1)c1ccccc1OC (relative stereo) [Example 76, (3aRS,4SR,9SR,9aRS)-4,9-ethano-9-(4-methoxyphenyl)-2-[2-(2-methoxyphenyl)propenoyl]-2,3,3a,4,9,9a-hexahydro-1H-benzo[f]isoindole-3a-N-(3-pyridylmethyl)carboxamide]",0.244
4,"C=C(C(=O)N1C[C@H]2[C@@]3(c4ccc(C)cc4)CC[C@H](c4ccccc43)[C@@]2(C(=O)NCc2cccnc2)C1)c1ccccc1OC (single isomer, unassigned) [Example 19, Levorotatory Enantiomer of (3aRS,4SR,9SR,9aRS)-4,9-ethano-2-[2-(2-methoxyphenyl)propenoyl]-9-(4-methylphenyl)-2,3,3a,4,9,9a-hexahydro-1H-benzo[f]isoindole-3a-N-(3-pyridylmethyl)carboxamide]",0.181
5,"COc1ccccc1CC(=O)N1C[C@@H]2[C@]3(c4cc(C)c(C)c(C)c4)CC[C@@H](c4ccccc43)[C@]2(C(=O)O)C1 (racemic) [Example 37, (3aRS,4SR,9SR,9aRS)-4,9-ethano-2-[(2-methoxyphenyl)acetyl]-9-(3,4,5-trimethylphenyl)-2,3,3a,4,9,9a-hexahydro-1H-benzo[f]isoindole-3a-carboxylic Acid]",0.088
6,"C=C(C(=O)N1C[C@H]2[C@@]3(c4ccc(OC)cc4)CC[C@H](c4ccccc43)[C@@]2(C(=O)NNc2ccccc2)C1)c1ccccc1OC (relative stereo) [Example 77, (3aRS,4SR,9SR,9aRS)-4,9-ethano-9-(4-methoxyphenyl)-2-[2-(2-methoxyphenyl)propenoyl]-2,3,3a,4,9,9a-hexahydro-1H-benzo[f]isoindole-3a-N'-phenylcarbohydrazide]",0.204
7,"C=C(C(=O)N1C[C@H]2[C@@]3(c4ccc(C)cc4)CC[C@H](c4ccccc43)[C@@]2(C(=O)NN2CCCCC2)C1)c1ccccc1OC (relative stereo) [Example 24, (3aRS,4SR,9SR,9aRS)-4,9-ethano-2-[2-(2-methoxyphenyl)propenoyl]-9-(4-methylphenyl)-2,3,3a,4,9,9a-hexahydro-1H-benzo[f]isoindole-3a-N',N'-pentamethylenecarbohydrazide]",0.084
8,"C=C(C(=O)N1C[C@H]2[C@@]3(c4ccc(C)cc4)CC[C@H](c4ccccc43)[C@@]2(C(=O)NCc2ccncc2)C1)c1ccccc1OC (relative stereo) [Example 20, (3aRS,4SR,9SR,9aRS)-4,9-ethano-2-[2-(2-methoxyphenyl)propenoyl]-9-(4-methylphenyl)-2,3,3a,4,9,9a-hexahydro-1H-benzo[f]isoindole-3a-N-(4-pyridylmethyl)carboxamide]",0.14

# Continued, values first:
row,IC50 [µM],Compound
1,0.028,"C=C(C(=O)N1C[C@H]2[C@@]3(c4ccc(C)cc4)CC[C@H](c4ccccc43)[C@@]2(C(=O)O)C1)c1ccccc1OC (single isomer, unassigned) [Example 3, dextrorotatory enantiomer of (3aRS,4SR,9RS,9aRS)-4,9-ethano-2-[2-(2-methoxyphenyl)propenoyl]-9-(4-methylphenyl)-2,3,3a,4,9,9a-hexahydro-1H-benzo[f]isoindole-3a-carboxylic acid]"
2,0.181,"C=C(C(=O)N1C[C@@H]2[C@]3(c4ccc(Cl)cc4)CC[C@@H](c4ccccc43)[C@]2(C(=O)OC)C1)c1ccccc1OC (racemic) [Example 52, methyl (3aRS,4SR,9SR,9aRS)-9-(4-chlorophenyl)-4,9-ethano-2-[2-(2-methoxyphenyl)-propenoyl]-2,3,3a,4,9,9a-hexahydro-1H-benzo[f]isoindole-3a-carboxylate]"
3,0.048,"C=C(C(=O)N1C[C@@H]2[C@]3(c4ccc(OC)cc4)CC[C@@H](c4ccccc43)[C@]2(C(=O)NO)C1)c1ccccc1OC (racemic) [Example 78, (3aRS,4SR,9SR,9aRS)-4,9-ethano-9-(4-methoxyphenyl)-2-[2-(2-methoxyphenyl)propenoyl]-2,3,3a,4,9,9a-hexahydro-1H-benzo[f]isoindole-3a-hydroxamic acid]"
4,0.097,"C=C(C(=O)N1C[C@@H]2[C@]3(c4ccc(OC(F)(F)F)cc4)CC[C@@H](c4ccccc43)[C@]2(C(=O)O)C1)c1ccccc1OC (racemic) [Example 82, (3aRS,4SR,9SR,9aRS)-4,9-ethano-2-[2-(2-methoxyphenyl)propenoyl]-9-(4-trifluoromethoxyphenyl)-2,3,3a,4,9,9a-hexahydro-1H-benzo[f]isoindole-3a-carboxylic Acid]"
5,0.325,"C=C(C(=O)N1C[C@@H]2[C@]3(c4ccc(F)cc4)CC[C@@H](c4ccccc43)[C@]2(C(=O)OC)C1)c1ccccc1OC (racemic) [Example 64, methyl (3aRS,4SR,9SR,9aRS)-4,9-ethano-9-(4-fluorophenyl)-2-[2-(2-methoxyphenyl)propenoyl]-2,3,3a,4,9,9a-hexahydro-1H-benzo[f]isoindole-3a-carboxylate]"
6,0.229,"C=C(C(=O)N1C[C@@H]2[C@]3(c4ccc(Br)cc4)CC[C@@H](c4ccccc43)[C@]2(C(=O)OC)C1)c1ccccc1OC (racemic) [Example 49, methyl (3aRS,4SR,9SR,9aRS)-9-(4-bromophenyl)-4,9-ethano-2-[2-(2-methoxyphenyl)-propenoyl]-2,3,3a,4,9,9a-hexahydro-1H-benzo[f]isoindole-3a-carboxylate]"
7,0.068,"C=C(C(=O)N1C[C@@H]2[C@]3(c4ccc(Cl)c(Cl)c4)CC[C@@H](c4ccccc43)[C@]2(C(=O)O)C1)c1ccccc1OC (racemic) [Example 51, (3aRS,4SR,9SR,9aRS)-9-(3,4-dichlorophenyl)-4,9-ethano-2-[2-(2-methoxyphenyl)-propenoyl]-2,3,3a,4,9,9a-hexahydro-1H-benzo[f]isoindole-3a-carboxylic Acid]"
